Test results: patent publication US5858985A, “Treatment of asthma with fructose-1,6-diphosphate” (priority 1997, dated 1999)
Values joined by “and” are separate entries in the source; they are usually repeats but may differ in a detail not shown here. Equal entries are not always repeated. “Also recorded” adds a separate entry of the source. Where two headings read alike, the source gives them in different places.

Experiments:
rat T-lymphocyte = assay: inhibition of T-lymphocyte proliferation after stimulation with Con-A ((3H)-thymidine incorporation); assay type: cell-based
Description: Lymphocyte cells were isolated either from human venous blood or rat spleen. The cells were suspended in Dulbecco's media. A manual cell count was done using 0.1 ml of Trypan blue and 0.1 ml of the cell media mixture. […] Tissue culture multi-well plates were used for incubation and in each well 0.1 ml of cell suspension was placed. To the FDP treatment wells (in triplicate) were added 0.1 ml of FDP from 10% stock solution, in serial dilutions which included 1:10, 1:100, 1:250, 1:500; 1:1000, and 1:10000). Cyclosporine treatment wells received 0.1 ml cyclosporine A, at various concentrations including 500 ng/ml, 50 ng/ml; 5 ng/ml and 0.5 ng/ml. All wells except control wells received concanavalin A (conA) at […] (0.01 ml). The final volume for all wells was 0.21 ml.
After incubation, the cells were pulsed in 5% Co2 at 37° C. with 1 μCi of (^3 H)-thymidine (i.e., the cells were incubated for a controlled period of time with thymidine, one of the building blocks of DNA, which contained tritium, a radioactive isotope of hydrogen). The cells were harvested, and washed to remove any tritiated thymidine that had not been incorporated into new DNA. The radioactivity levels of the treated cells were then measured, using a scintillation counter. The results, in Table 2, are reported as counts/min.

[1] = tested on: mongrel dogs challenged with methacholine; assay: acute experimental asthma (bronchospasm) induced in dogs by methacholine inhalation; assay type: in vivo, dog
human volunteers = assay: lung function (peak expiratory flow rate) in healthy human volunteers after nebulized inhalation; assay type: in vivo
Description: When adjusted to deliver 56-68 L/min with a 5-6 L/min oxygen flow, the final oxygen content was 28%. The output tube from the nebulizer was connected to a standard face mask, which was placed on the face of the subject. The bottle of the nebulizer contained 100 ml of the FDP solution. The FDP dose delivered in the mist, during the 5 consecutive breaths, was calculated to be about 12 mg.
Prior to the FDP inhalation, in each volunteer, 3 consecutive peak expiratory flow rate (PEFR) measurements were made with the aid of an Astech Peak Flow Meter (Center Laboratories, Port Washington, N.Y. 11050). Briefly, these tests involved having each volunteer take as deep a breath as possible, and then blow as hard as possible into the meter. This was done over a period of a couple of minutes, giving the volunteer some time to catch their breath before and after each effort. The mean of these three measurements was considered as the baseline PEFR value for that person. Baseline heart rates, systolic and diastolic blood pressures, and body temperatures were also measured.
FDP inhalations (5 breaths in each set) were then made, approximately 15, 30, 45, 75, 105 and 165 minutes after the baseline measurements had been made. On several occasions, FDP inhalations were also made, 2 and 5 minutes after the baseline measurements were taken. After each such inhalation, three different expirations were measured, all within a couple of minutes after the FDP inhalation had been completed. The various measurements made after FDP inhalation were compared with the baseline values, before FDP administration. The t-test was used to compare paired observations, and differences were considered significant only when the two-tailed p value was <0.05.

[2] = tested on: Sprague-Dawley rats injected with compound 48/80; assay: compound 48/80-induced shock (histamine release by mast cells) in rats; assay type: in vivo, rat
Description: As noted above, the release of histamine by mast cells plays a significant role in aggravating asthma attacks. FDP was evaluated to determine whether it could help suppress histamine release by mast cells, in tests that use a compound called "48/80", which is known to trigger the release of histamine by mast cells. This compound, if injected into an animal at an appropriate dosage, will trigger sufficient histamine release to send the animal into anaphylactic shock, which poses a lethal challenge. Useful physiological measurements can be made during the test period, and if mortality is studied as an endpoint, an animal is deemed to survive if it lives for 48 hours after injection of the 48/80 compound.
Anesthetized male Sprague-Dawley rats (n=20) weighing 448±7.4 gm were randomly assigned into 2 groups. Animals in the FDP-treated group were injected intraperitoneally (IP) with a 10% (w/v) solution of FDP in water, at a dosage of 2.5 gm/kg (i.e., 2.5 grams of FDP per kilogram of body weight). […] Thirty minutes later, all rats were injected IP with compound 48/80, at 5 mg/kg.

[3] = tested on: human test subject with chronic cough; assay: repeated FDP inhalation in a volunteer with chronic cough secondary to allergic bronchitis; assay type: in vivo
Excerpt: This subject participated in several studies over 10 days. Prior to FDP inhalation, their baseline PEFR was 390 L/min. This value increased with each and every FDP treatment.

[4] = tested on: RNA encoding the IL-2 protein; assay: IL-2 RNA expression in ConA-stimulated lymphocytes (reverse transcription, PCR, densitometry); assay type: cell-based; settings: rat lymphocytes pre-treated with FDP, ConA stimulation, 5 days of incubation
Description: The Applicant also investigated the expression of cytokines by T-lymphocytes. Isolated lymphocytes were obtained from rats, and incubated with stimulation by ConA treatment, as described above; treated cells were pre-treated with FDP, as described above, while control cells were not treated with FDP. After 5 days of incubation, RNA was extracted from the lymphocytes, using RNA-stat60. The integrity of RNA samples was evaluated by use of agarose-formaldehyde gel electrophoresis, and its quantity was determined spectrophotometrically.
The RNA was transcribed into complementary DNA (cDNA), using a reverse transcriptase enzyme. 10 μl of solution containing 1 μg of total cellular RNA was heated at 65° C. for 10 min, and then chilled on ice. To this solution was added 10 μl of a mixture containing 2× reverse transcriptase buffer (100 mM Tris-HCl, pH 8.3, 150 mM KC1, 6 MM MgCl2), 1 μg oligo(dT)12-18, 100 μg/ml of acetylated bovine serum albumin, 0.5 mM mixed deoxynucleotides (dNTP), 10 units of RNAasin, and 100 units of MMLV reverse transcriptase enzyme. The mixture was incubated for 45 min at 35° C., then chilled on ice.
The cDNA sequences for three specific interleukins (IL-1, IL-2, and IL-6) were then amplified, using polymerase chain reaction (PCR) techniques, using previously published sense and anti-sense primer sequences for rat IL-1, rat IL-2, and rat IL-6. […]

human IL-2 = assay: interleukin-2 production by human T-cells stimulated by Con-A (ELISA); assay type: cell-based; settings: all tested FDP concentrations, result in words
Description: In addition, the amounts of IL-2 released by human T-cells were also evaluated, using ConA stimulation in the presence or absence of FDP. These tests used a commercially available human immunoassay kit (Inter Test-2X IL-2 Elisa Kit, sold by Genzyme Corp., Cambridge, Mass.) which uses monoclonal antibodies that bind specifically to human IL-2. The results, in Table 3, indicate that FDP, at all tested concentrations, abolished IL-2 production by the stimulated human T-lymphocytes. IL-2 concentrations are expressed in picograms per milliliter of media.

[5] = tested on: membrane-bonded Na+--K+ ATPase enzymes; assay type: biochemical, rat; settings: pretreatment with 500 μM FDP
Description: Oleander toxins were prepared by air-drying leaves from red-flowering Nerium oleander plants for 4 days, pulverizing the leaves to a fine powder in a blender, and extracting the leaves in a 95% ethyl alcohol solution for 10 days. After extraction, the tincture was filtered, and part of the alcohol solvent was removed by flash evaporation, to a volume where 1 gram of crude drug was equal to 1 ml of alcohol solution. The extract was stored as a stock solution at 0° C., and periodically analyzed for alkaloid content by high pressure liquid chromatography, using oleandrin as an external standard. […]
When ready for use, intact isolated rat hearts were transferred to ice-cold homogenizing medium (50 mM Na2 HPO4, 10 mM Na2 EDTA, and 25 mM NaF, pH 7.4). […]
The pellet obtained after this centrifugation, consisting of crude membrane vesicles, was suspended in a storage buffer (30 mM histidine, 0.25 M sucrose, 10 mM EDTA, and 10 mM NaF, pH 7.5) and stored at -80° C. until use. Protein content was determined using a Biorad protein assay kit, with gamma globulin as a standard.
The Na^+ --K^+ ATPase activity levels for these sarcolemmal membrane preparations was determined calorimetrically by measuring how much inorganic phosphate (Pi) was liberated when the ATPase enzyme hydrolyzed ATP to release phosphate groups. […]

[6] = one subject, reported after 10 days of FDP inhalations

## O=C(COP(=O)(O)O)[C@@H](O)[C@H](O)[C@H](O)COP(=O)(O)O [FDP, fructose-1,6-diphosphate]
Rat T-lymphocyte; Con-A plus 1:10 dilution of 10% FDP stock, Con-A alone 30718 ± 4316, no Con-A 527 ± 139
  Activation Index: 101 ± 16 counts/min
Rat T-lymphocyte; Con-A plus 1:100 dilution of 10% FDP stock
  Activation Index: 190 ± 42 counts/min
Rat T-lymphocyte; Con-A plus 1:250 dilution of 10% FDP stock
  Activation Index: 383 ± 170 counts/min
Rat T-lymphocyte; Con-A plus 1:500 dilution of 10% FDP stock
  Activation Index: 3592 ± 974 counts/min
Rat T-lymphocyte; Con-A plus 1:1000 dilution of 10% FDP stock
  Activation Index: 12288 ± 1880 counts/min
Rat T-lymphocyte; Con-A plus 1:10,000 dilution of 10% FDP stock
  Activation Index: 19046 ± 3237 counts/min
Rat T-lymphocyte; result in words, cyclosporine A tested at 0.5 to 500 ng/ml
  ConA-induced activation and proliferation of T-cells: able to block ConA activation of the lymphocytes; also recorded: inhibited the ConA-induced activation and proliferation of T-cells in a dose dependent manner
[1]; dogs pre-treated with aerosolized 10% FDP for 3 minutes, before methacholine
  arterial blood oxygen partial pressure, Baseline: 89 ± 1.74 mm Hg
[1]; dogs pre-treated with aerosolized 10% FDP, 5 min after methacholine, controls 47 ± 2.85, p = 0.007
  arterial blood oxygen partial pressure (PaO2), 5 min: 70±5.62 mm Hg and 69 ± 6.49 mm Hg
[1]; dogs pre-treated with aerosolized 10% FDP, 15 min after methacholine, controls 53 ± 3.86, p < 0.001
  arterial blood oxygen partial pressure (PaO2), 15 min: 81 ± 3.36 mm Hg
[1]; dogs, methacholine challenge with FDP treatment
  PCO2: no consistent alterations
[1]; five dogs treated with FDP after (not before) methacholine, p<0.006
  PaO2 level at 5 minutes after FDP treatment: 64±4.26 mm Hg
[1]; five dogs treated with FDP after (not before) methacholine, p<0.01
  PaO2 level at 30 minutes after FDP treatment: 80±4.04 mm Hg
[1]; five dogs treated with FDP after (not before) methacholine, p<0.02
  PaO2 level at 15 minutes after FDP treatment: 72±1.84 mm Hg
Human volunteers; all tests on volunteers, other than decreased heart rates and increased pulmonary ventilation rates
  side effects: no side effects were noticed
Human volunteers; five volunteers, 10% FDP nebulized
  blood pressure or body temperature: did not elicit any changes
Human volunteers; five volunteers, 10% FDP nebulized, 5 breaths (about 12 mg), baseline 471±29.6, P<0.005
  mean peak expiratory flow rate (PEFR) following FDP administration: 529 ± 35.6 L/min
Human volunteers; one volunteer, 20% FDP solution for 10 min, 700 mg inhaled, baseline 616
  PEFR after inhalation session: 667 L/min
Human volunteers; one volunteer, high dosages (700 to 750 mg, 20% or 10% solution, ten minute inhalation)
  side effects: no side effects were detected
[2]; FDP 2.5 gm/kg IP 30 min before compound 48/80 5 mg/kg IP, vs saline group, P<0.005, FIG. 1
  arterial pressure: significantly higher than in the saline group
[2]; FDP 2.5 gm/kg IP before compound 48/80 5 mg/kg IP, survival = 48 hours, saline group 100%, P<0.001
  mortality: 20%
[2]; FDP 2.5 gm/kg IP before compound 48/80 5 mg/kg IP, vs saline group, P<0.01, FIG. 2, 5 mg/kg
  plasma potassium: remained within normal values; also recorded: lower
[2]; FDP 2.5 gm/kg IP before compound 48/80, saline group 98±9.2
  average arterial partial pressure of oxygen (PO2): 121±6.1 mm Hg
[3]; one subject with chronic cough, repeated FDP inhalation, baseline 390, P<0.01
  PEFR at 10 days after the first inhalation: 520 L/min
[3]; [6]
  breathing: substantially improved
  coughing: nearly disappeared
[4]
  RNA encoding the IL-2 protein: no detectable levels of RNA encoding the IL-2 protein
Human IL-2
  IL-2 production by the stimulated human T-lymphocytes: no detectable IL-2
[5]; oleander extract 1.0 mg
  Na+--K+ ATPase activity: 19.32 ± 0.62 micromoles of inorganic phosph
[5]; oleander extract 2.0 mg
  Na+--K+ ATPase activity: 15.75 ± 0.39 micromoles of inorganic phosph

## albuterol sulfate [reference compound]
Human volunteers; albuterol sulfate inhalation solution 0.005% w/v in 0.9% NaCl, two occasions, identical procedures
  PEFR: did not induce any significant change
